For 33 compounds, EC50 results are on record in US20250313574A1, “SIALIC ACID DERIVATIVES AND METHODS OF USING SAME” (EISAI R&D MANAGEMENT CO., LTD., priority 2022, published 2025).

Bounds are passed on as bounds.

Recombinant human CD33 protein, sequence (P20138 18-259): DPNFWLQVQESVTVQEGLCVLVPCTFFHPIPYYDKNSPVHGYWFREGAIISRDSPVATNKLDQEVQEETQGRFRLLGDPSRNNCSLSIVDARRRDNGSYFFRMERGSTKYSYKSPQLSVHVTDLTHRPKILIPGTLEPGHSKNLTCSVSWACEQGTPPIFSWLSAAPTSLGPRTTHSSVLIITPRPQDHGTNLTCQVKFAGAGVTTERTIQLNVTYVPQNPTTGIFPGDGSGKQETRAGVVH

The assay concerns the target Recombinant human CD33 protein (Homo sapiens (Human), UniProt P20138). Briefly: CD33 competitive binding assay for HTS drug screen (fluorescent multivalent sialic acid probe). On the procedure:
This is a competitive binding assay that uses recombinant CD33 immobilized to a plate and a fluorescently-labeled multivalent sialic acid analog as a probe. Binding of drug to the site on CD33 to which sialic acid binds is detected by reduced binding of the fluorescent probe. Recombinant human CD33 protein (for example Acro Biosystems cat #CD3-H5257) was added at a concentration of 10 μg/ml in 20 mM acetate buffer (pH5.5) to a black plastic plate (Corning 4510) and allowed to incubate overnight at 4° C. The next day, the wells were washed 3 times with PBS containing 0.02% Tween-20. This was followed by a 30-minute incubation with PBS containing 0.2% Tween-20 and 0.5% BSA to block non-specific binding to the well. This buffer is removed and replaced with 10 μl of the same buffer, which is also used as the assay buffer. The fluorescent multivalent sialic acid probe was prepared as a 4× concentration as follows. A biotinylated sialic acid analog A-375 was mixed with biotin-4-Fluorescein isothiocyanate (biotin-4-FITC) at a 3:1 molar ratio with final concentrations (4× stock) of 60 μM A-375 and 20 μM biotin-4-FITC. After these were mixed, 20 μM of neutravidin was added, which should form complexes consisting of neutravidin, fluorescein and sialic acid with an average complex consisting of 1 neutravidin, 1 FITC and 3 sialic acid analogs. The multimerization of the sialic acid analog is critical to the assay and improves the affinity of the sialic acid analog several orders of magnitude. A test compound, for example A-001, is added at 5 μl to the 10 μl assay buffer already in the well. After a brief incubation, 5 μl of the 4× stock solution of sialic acid complexes was added. The final concentration of the complexes was therefore 5 μM neutravidin, 15 μM A-375 and 5 μM FITC. The plate was incubated at room temperature for 30 mins and then washed with PBS containing 0.2% Tween-20. Binding of the sialic acid complex is very stable, with an off-rate of several days. Bound complex was then detected using a standard plate reader to quantify FITC fluorescence.
With `Cc1cc(C(=O)NC[C@@H](O)C[C@H]2CC[C@H](C)[C@](CCN3CCOC[C@@]34CCN(C(=O)OC(C)(C)C)C4)(C(=O)O)O2)cc2cc[nH]c12` [A-216], the half-maximal effective concentration (EC50) was 12200 nM.

Turning to `CC(=O)N[C@H]1[C@H]([C@H](O)[C@H](O)CNC(=O)c2cc(C)c(O)c(C)c2)O[C@@](CN2CCCC3(CCN(C(=O)OC(C)(C)C)C3)C2)(C(=O)O)C[C@@H]1O` (stereo partly drawn) [A-193], the EC50 stood at 90 nM.

In the case of `CC(=O)N[C@H]1[C@H]([C@H](O)[C@H](O)CNC(=O)c2cc(C)c(O)c(C)c2)O[C@@](C/C=C/C2(F)CCN(C(=O)OC(C)(C)C)C2)(C(=O)O)C[C@@H]1O` (stereo partly drawn) [A-198], the EC50 was 148 nM.

Regarding `CC(=O)N[C@H]1[C@H]([C@H](O)[C@H](O)CNC(=O)c2cc(C)c(O)c(C)c2)O[C@@](CCN2CCNC[C@@]23CCN(C(=O)NC(C)(C)C)C3)(C(=O)O)C[C@@H]1O` [A-108], the EC50 was found to be 26 nM.

As to `CC(=O)N[C@H]1[C@H]([C@H](O)[C@H](O)CNC(=O)c2cc(C)c(O)c(C)c2)O[C@@](CCN2CCOC[C@@]23CCN(C(=O)NC2(c4ccccc4)CC2)C3)(C(=O)O)C[C@@H]1O` [A-054], the EC50 was found to be 147 nM.

In the case of `CC(=O)N[C@H]1[C@H]([C@H](O)[C@H](O)CNC(=O)c2cc(C)c(O)c(C)c2)O[C@@](CCN2CCOC[C@@]23CCN(C(=O)C(C)C2CCCCC2)C3)(C(=O)O)C[C@@H]1O` (stereo partly drawn) [A-076], the EC50 was 226 nM.

For `CC(=O)N[C@H]1[C@H]([C@H](O)[C@H](O)CNC(=O)c2cc(C)c(O)c(C)c2)O[C@@](CCN2CCC[C@]23CCN(C(=O)OC(C)(C)C)C3)(C(=O)O)C[C@@H]1O` [A-020], the EC50 came out at 472 nM.

Take `CC(=O)N[C@H]1[C@H]([C@H](O)[C@H](O)CNC(=O)c2cc(C)c(O)c(C)c2)O[C@@](CCN2CCOC[C@@]23CCN(C(=O)C(C)(C)Oc2ccccc2)C3)(C(=O)O)C[C@@H]1O` [A-081]: the EC50 was determined as 1950 nM.

Regarding `CC(=O)N[C@H]1[C@H]([C@H](O)[C@H](O)CNC(=O)c2cc(C)c(O)c(C)c2)O[C@@](CCN2CCOC[C@@]23CCN(C(=O)NC(C)(C)C(C)C)C3)(C(=O)O)C[C@@H]1O` [A-050], the EC50 worked out at 20 nM.

Take `Cc1cc(C(=O)NCC(O)C[C@@H]2O[C@@](C/C=C/C3CCN(C(=O)OC(C)(C)C)C3)(C(=O)O)CCC2C)cc(C)c1O` (single isomer, unassigned) [A-210]: the EC50 is 21400 nM.

Consider `Cc1cc(C(=O)NC[C@@H](O)C[C@H]2CCC[C@](CCN3CCOC[C@@]34CCN(C(=O)OC(C)(C)C)C4)(C(=O)O)O2)cc(C)c1O` [A-208], for which the EC50 was greater than 20000 nM.

In the case of `CC(=O)N[C@H]1[C@H]([C@H](O)[C@H](O)CNC(=O)c2cc(C)c(O)c(C)c2)O[C@@](CCN2CCOC[C@@]23CCN(C(=O)CC(C)(C)C)C3)(C(=O)O)C[C@@H]1O` [A-072], the EC50 came to 230 nM.

Turning to `Cc1cc(C(=O)NCC(O)C[C@@H]2O[C@@](C/C=C/C3CCN(C(=O)OC(C)(C)C)C3)(C(=O)O)CCC2C)cc2cc[nH]c12` (single isomer, unassigned) [A-211], the EC50 is 15200 nM.

Consider `CC(=O)N[C@H]1[C@H]([C@H](O)[C@H](O)CNC(=O)c2cc(C)c(O)c(C)c2)O[C@@](CCN2CCOC[C@@]23CCN(C(=O)C2CCCCC2)C3)(C(=O)O)C[C@@H]1O` [A-067], for which the EC50 amounted to 63 nM.

Turning to `CC(=O)N[C@H]1[C@H]([C@H](O)[C@H](O)CNC(=O)c2cc(C)c3[nH]ncc3c2)O[C@@](CCN2CCOC[C@@]23CCN(C(=O)OC(C)(C)C)C3)(C(=O)O)C[C@@H]1O` [A-130], the EC50 was found to be 9 nM.

As to `CC(=O)N[C@H]1[C@H]([C@H](O)[C@H](O)CNC(=O)c2cc(C)c(O)c(C)c2)O[C@@](CCN2CCOC[C@@]23CCN(c2cc(N(C)C)ccn2)C3)(C(=O)O)C[C@@H]1O` [A-041], the EC50 came to 580 nM.

Turning to `CC(=O)N[C@H]1[C@H]([C@H](O)[C@H](O)CNC(=O)c2cc(C)c(O)c(C)c2)O[C@@](C/C=C/C2CCN(c3cc(N(C)C)ccn3)C2)(C(=O)O)C[C@@H]1O` (stereo partly drawn) [A-199], the EC50 turned out to be 9860 nM.

For the compound `COC[C@@]1(NCC[C@]2(C(=O)O)C[C@H](O)[C@@H](NC(C)=O)[C@H]([C@H](O)[C@H](O)CNC(=O)c3cc(C)c(O)c(C)c3)O2)CCN(C(=O)OC(C)(C)C)C1` [A-030], the EC50 was 49 nM.

For the compound `CC(=O)N[C@H]1[C@H]([C@H](O)[C@H](O)CNC(=O)c2cc(C)c(O)c(C)c2)O[C@@](CCN2CCN(C)C[C@]23CCN(C(=O)NC(C)(C)C)C3)(C(=O)O)C[C@@H]1O` [A-106], the EC50 was found to be 1950 nM.

On to `CC(=O)N[C@H]1[C@H]([C@H](O)[C@H](O)CNC(=O)c2ccc3sc(C)nc3c2)O[C@@](CCN2CCOC[C@@]23CCN(C(=O)OC(C)(C)C)C3)(C(=O)O)C[C@@H]1O` [A-131], for which the half-maximal effective concentration (EC50) turned out to be 24 nM.

Turning to `C=C(OC(C)(C)C)N1CC2(CCN2CC[C@]2(C(=O)O)C[C@H](O)[C@@H](NC(C)=O)[C@H]([C@H](O)[C@H](O)CNC(=O)c3cc(C)c(O)c(C)c3)O2)C1` [A-021], the EC50 is 887 nM.

In the case of `CC(=O)N[C@H]1[C@H]([C@H](O)[C@H](O)CNC(=O)c2cc(C)c(O)c(C)c2)O[C@@](CCN2CCOC[C@@]23CCN(C(=O)c2ccc4[nH]c(C(C)O)nc4c2)C3)(C(=O)O)C[C@@H]1O` (stereo partly drawn) [A-095], the EC50 worked out at 1690 nM.

Regarding `Cc1cc(C(=O)NC[C@@H](O)[C@@H](O)[C@@H]2O[C@@](CCN3CCOC[C@@]34CCN(C(=O)OC(C)(C)C)C4)(C(=O)O)C[C@H](O)[C@H]2N(C)C)cc(C)c1O` [A-203], the EC50 was greater than 5000 nM.

For `CC(=O)N[C@H]1[C@H]([C@H](O)[C@H](O)CNC(=O)c2cc(C)c(O)c(C)c2)O[C@@](CCN2CCOC[C@@]23CCN(C(=O)COCC(C)C)C3)(C(=O)O)C[C@@H]1O` [A-083], the EC50 is 1000 nM.

For the compound `CC(=O)N[C@H]1[C@H]([C@H](O)[C@H](O)CNC(=O)c2cc(C)c(O)c(C)c2)O[C@@](CCN2CCOC[C@@]23CCN(C(=O)C(c2ccccc2)C2CCCCC2)C3)(C(=O)O)C[C@@H]1O` (stereo partly drawn) [A-089], the EC50 stood at 291 nM.

Consider `CC(=O)N[C@H]1[C@H]([C@H](O)[C@H](O)CNC(=O)c2cc(C)c(O)c(C)c2)O[C@@](CCN2CCOC[C@@]23CCN(C(=O)NC(C)(C)c2ccccc2)C3)(C(=O)O)C[C@@H]1O` [A-055], for which the EC50 amounted to 247 nM.

As to `CC(=O)N[C@H]1[C@H]([C@H](O)[C@H](O)CNC(=O)c2cc(C)c(O)c(C)c2)O[C@@](C[C@@H]2COC[C@@]3(CCN(C(=O)OC(C)(C)C)C3)N2)(C(=O)O)C[C@@H]1O` [A-226, (2R,4S,5R,6R)-5-acetamido-2-(((5S,7R)-2-(tert-butoxycarbonyl)-9-oxa-2,6-diazaspiro[4.5]decan-7-yl)methyl)-6-((1R,2R)-1,2-dihydroxy-3-(4-hydroxy-3,5-dimethylbenzamido)propyl)-4-hydroxytetrahydro-2H-pyran-2-carboxylic acid], the EC50 turned out to be 3870 nM.

For the compound `CC(=O)N[C@H]1[C@H]([C@H](O)[C@H](O)CNC(=O)c2cc(C)c(O)c(C)c2)O[C@@](CCN2CCOC[C@@]23CCN(C(=O)C2(C)CCCO2)C3)(C(=O)O)C[C@@H]1O` (stereo partly drawn) [A-077], the EC50 came to 283 nM.

Consider `Cc1cc(C(=O)NCC(O)C[C@@H]2O[C@@](CCN3CCOC[C@@]34CCN(C(=O)OC(C)(C)C)C4)(C(=O)O)CCC2C)cc(C)c1O` (single isomer, unassigned) [A-214], for which the EC50 was 9800 nM.

Regarding `C=C(OC(C)(C)C)N1CCC2(CC1)CCN2CC[C@]1(C(=O)O)C[C@H](O)[C@@H](NC(C)=O)[C@H]([C@H](O)[C@H](O)CNC(=O)c2cc(C)c(O)c(C)c2)O1` [A-023], the 50% effective concentration (EC50) worked out at 176 nM.

For the compound `C#C[C@H](C)C(=O)C(=O)Nc1cccc([C@@H]2OC(C)(C)OC2C[C@]2(C(=O)O)C[C@H](O)[C@@H](NC(C)=O)[C@H]([C@H](O)[C@H](O)CNC(=O)c3cc(C)c(O)c(C)c3)O2)c1` (stereo partly drawn) [A-306], the EC50 stood at 5620 nM.

Consider `CC(=O)N[C@H]1[C@H]([C@H](O)[C@H](O)CNC(=O)c2cc(C)c(O)c(C)c2)O[C@@](CCN2CCOC[C@@]23CCN(Cc2cccc(C)c2)C3)(C(=O)O)C[C@@H]1O` [A-104], for which the EC50 was greater than 10000 nM.

As to `Cc1cc(C(=O)NCC(O)C[C@@H]2O[C@@](C/C=C/C3CCN(C(=O)OC(C)(C)C)C3)(C(=O)O)CCC2C)cc2cc[nH]c12` (single isomer, unassigned) [A-212], the EC50 came out at 17400 nM.

For orientation: EC50 means the concentration at which the effect is half-maximal.
